From patent US6583147B1, “Pyrazolopyrimidinone derivatives for the treatment of impotence” (Dong A Pharm Co., Ltd., priority 1998, dated 2003)
One block for each compound: values may come before it.

Experiments:
rats = assay: Penile erection test using rats; format: in vivo, rat; conditions: oral single dose 10 mg/kg in 0.5% methyl cellulose, observed for 2 hours
[1] = target: T1, Phosphodiesterase-5 enzyme (PDE 5) (Homo sapiens, UniProt O76074); assay: Test for phosphodiesterase-5 (PDE 5) activity; format: biochemical; conditions: PDE 5 fraction from human corpus cavernosal tissues
T1 construct: separated by HPLC (Mono Q anion exchange column) with concentration gradient of 0-500 mM NaCl to elute PDE isozymes; from tissue; host or cells: human corpus cavernosal tissue

[2] = target: T2, Phosphodiesterase-3 enzyme (PDE 3) (Oryctolagus cuniculus, UniProt G1ST54); assay: Test for phosphodiesterase-3 (PDE 3) activity; format: biochemical; conditions: PDE 3 fraction from platelets of a rabbit
T2 construct: The supernatant was separated by DEAE-cellulose column chromatography (Whatman DE52 bead); from tissue; host or cells: rabbit platelets
T2 sequence (G1ST54 1-1128): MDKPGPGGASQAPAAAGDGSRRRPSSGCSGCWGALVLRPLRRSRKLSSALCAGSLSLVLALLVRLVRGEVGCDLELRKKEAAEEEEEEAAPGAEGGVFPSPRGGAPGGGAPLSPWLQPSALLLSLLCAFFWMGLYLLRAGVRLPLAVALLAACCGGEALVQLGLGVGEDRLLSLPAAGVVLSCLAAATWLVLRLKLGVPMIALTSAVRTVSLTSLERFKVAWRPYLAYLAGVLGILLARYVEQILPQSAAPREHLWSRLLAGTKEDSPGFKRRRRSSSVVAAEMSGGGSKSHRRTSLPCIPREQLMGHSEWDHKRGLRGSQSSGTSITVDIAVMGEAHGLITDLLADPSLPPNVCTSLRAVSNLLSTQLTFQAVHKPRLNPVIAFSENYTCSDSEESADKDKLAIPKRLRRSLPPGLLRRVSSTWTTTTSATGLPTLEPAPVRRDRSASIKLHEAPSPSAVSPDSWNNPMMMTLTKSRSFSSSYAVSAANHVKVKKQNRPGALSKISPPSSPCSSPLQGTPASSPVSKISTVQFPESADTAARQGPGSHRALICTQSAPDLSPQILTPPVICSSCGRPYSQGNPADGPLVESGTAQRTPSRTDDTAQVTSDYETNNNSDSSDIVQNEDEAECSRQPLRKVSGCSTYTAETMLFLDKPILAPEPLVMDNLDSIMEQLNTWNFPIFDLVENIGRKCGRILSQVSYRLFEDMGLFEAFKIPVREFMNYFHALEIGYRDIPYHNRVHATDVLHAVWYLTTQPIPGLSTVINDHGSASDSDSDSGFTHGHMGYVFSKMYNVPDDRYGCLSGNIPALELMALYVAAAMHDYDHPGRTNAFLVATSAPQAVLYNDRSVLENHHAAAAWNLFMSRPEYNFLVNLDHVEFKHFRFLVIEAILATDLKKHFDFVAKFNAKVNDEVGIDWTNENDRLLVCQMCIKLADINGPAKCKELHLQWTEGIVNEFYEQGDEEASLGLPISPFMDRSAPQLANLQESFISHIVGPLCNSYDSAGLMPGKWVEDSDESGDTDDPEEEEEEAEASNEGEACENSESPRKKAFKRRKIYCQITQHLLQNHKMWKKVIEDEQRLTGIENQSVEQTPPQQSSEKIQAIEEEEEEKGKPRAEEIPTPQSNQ
Protocol: Phosphodiesterase-3 enzyme (PDE 3) was separated from platelets of a rabbit. About 60 ml of blood was collected from a puncture of the abdominal artery of a rabbit in heparinized syringes. Platelet-rich plasma was harvested by centrifugation for 5 min at 450×g and further centrifuged for 15 min at 1,200×g to precipitate the platelets. The platelets were resuspended in homogenizing buffer (50 mM Tris-HCl, 1 mM MgCl2, pH 7.4), homogenized at 4° C. and ultrasonicated (30 sec/ml). The homogenized solution was centrifuged (105,000×g) for 1 hr at 4° C. to obtain the supernatant in which PDE was dissolved. The supernatant was separated by DEAE-cellulose column chromatography (Whatman DE52 bead) by using eluent (50 mM Tris-HCl, 3.75mM2-mercaptoethanol, pH 6.0) with concentration gradient of 0-1 M sodium acetate to elute PDE isozymes. The PDE activity was measured on the each column fraction by the following process to separate PDE 3 fraction and the inhibition for PDE 3 of the compounds of formula 1 was measured by using the fraction.
To 1.5 ml tube containing 100 ul of reaction mixture (15 mM Tris-HCl, 5 mM MgCl2, 0.5 mg/ml BSA, pH 7.4) were added appropriate amount of PDE 3 fraction and PDE inhibitor and the solution was mixed well. After [^3H]-cAMP or [^3H]-cGMP (500 nM, 2 uCi/ml) was added, the mixture was reacted in incubator of 30° C. for about 1 hour and the reaction was quenched by putting the tube into boiling water for about 45 seconds to 2 min. The tube was chilled in ice bath for about 5 min. To this tube was added snake venom (1 mg/ml, 100 ul) or 5′-nucleotidase (0.1 unit/tube) and the mixture was reacted in incubator of 37° C. for 10 min and chilled in ice bath. 3 times volume of methanol to the resin was added to the anion exchange resin (Bio-Rad resin, AG1-X2, 200-400 mesh) which had been already washed with 0.5 N HCl, H2O, 0.5 N NaOH, H2O, 0.5 N HCl and H2O in order and adjusted to pH 5. Then 1 ml of the pretreated resin was added to the each tube with vortexing. The mixture was left at 4° C. for 15 min with occasional vortexing and centrifuged (10,000 rpm) for about 5 min to sediment the resin. The supernatant (700 ul) was transferred to a liquid scintillation vial, and mixed with 10 ml of scintillation cocktail. After stabilizing the mixture by leaving it overnight, the radioactivity of the tube was measured by β-counter.

[3] = Acute oral toxicity test in rats; conditions: SD, rat, in vivo, 1 g/kg; rats, oral single dose; read-out: lethal dose (LD50) of oral administration

IC50 [1]: 31.9 nM
IC50 [2]: 76500 nM
SMILES: CCCc1nn(CC)c2c(=O)[nH]c(-c3cc(S(=O)(=O)NCCC4CCCN4C)ccc3OCC)nc12 (stereo not shown) [Example 69]
PEI (penile erection index) (rats): 225.0 ± 95.7
genital grooming (number of genital groomings) (rats): 2.3 ± 1.0

SMILES: CCCOc1ccc(S(=O)(=O)Nc2cccnc2)cc1-c1nc2c(CCC)nn(C)c2c(=O)[nH]1 [Example 39, 5-[2-propyloxy-5-(3-pyridylamidosulfonyl)phenyl)-1-methyl-3-propyl-1,6-dihydro-7H-pyrazolo(4,3-d)pyrimidin-7-one]
PEI (penile erection index) (rats): 166.7 ± 57.7
genital grooming (number of genital groomings) (rats): 1.3 ± 1.5
IC50 [1]: 1.16 nM
IC50 [2]: 41700 nM
LD50 [3]: > 1000 mg/kg

SMILES: CCOc1ccc(S(=O)(=O)NCc2ccccc2)cc1-c1nc2c(CC(C)C)nn(C)c2c(=O)[nH]1 [Example 2, 5-[2-ethoxy-5-(benzylamidosulfonyl)phenyl]-1-methyl-3-isobutyl-1,6-dihydro-7H-pyrazolo(4,3-d)pyrimidin-7-one]
PEI (penile erection index) (rats): 533.3 ± 305.5
genital grooming (number of genital groomings) (rats): 5.7 ± 2.5
IC50 [1]: 10.8 nM
IC50 [2]: > 202000 nM
LD50 [3]: > 1000 mg/kg

SMILES: CCCc1nn(CC)c2c(=O)[nH]c(-c3cc(S(=O)(=O)Nc4ccc(F)cc4)ccc3OCC)nc12 [Example 33, 5-[2-ethoxy-5-(4-fluorophenylamidosulfonyl)phenyl]-1-ethyl-3-propyl-1,6-dihydro-7H-pyrazolo(4,3-d)pyrimidin-7-one]
PEI (penile erection index) (rats): 233.3 ± 57.7
genital grooming (number of genital groomings) (rats): 2.7 ± 0.6
IC50 [1]: 19.7 nM
IC50 [2]: 188000 nM
LD50 [3]: > 1000 mg/kg

SMILES: CCCOc1ccc(S(=O)(=O)NCC2CCN(CC)C2)cc1-c1nc2c(CCC)nn(C)c2c(=O)[nH]1 (stereo not shown) [Example 64, 5-[2-propyloxy-5-(1-ethyl-3-pyrrolidinylmethylamidosulfonyl)phenyl]-1-methyl-3-propyl-1,6-dihydro-7H-pyrazolo(4,3-d)pyrimidin-7-one]
PEI (penile erection index) (rats): 175.0 ± 95.7
genital grooming (number of genital groomings) (rats): 2.8 ± 0.5
IC50 [1]: 30.7 nM
IC50 [2]: 134000 nM
LD50 [3]: > 1000 mg/kg

SMILES: CCCOc1ccc(S(=O)(=O)NC2CCN(C)C2)cc1-c1nc2c(CCC)nn(C)c2c(=O)[nH]1 (stereo not shown) [Example 53, 5-[2-propyloxy-5-(1-methyl-3-pyrrolidinylamidosulfonyl)phenyl]-1-methyl-3-propyl-1,6-dihydro-7H-pyrazolo(4,3-d)pyrimidin-7-one]
PEI (penile erection index) (rats): 300.0 ± 200.0
genital grooming (number of genital groomings) (rats): 2.7 ± 2.1
IC50 [1]: 20.9 nM
IC50 [2]: > 205000 nM
LD50 [3]: > 1000 mg/kg

IC50 [1]: 140 nM
IC50 [2]: 122000 nM
SMILES: CCCc1nn(C)c2c(=O)[nH]c(-c3cc(S(=O)(=O)NCC4CCN(C)C4)ccc3OCC)nc12 (stereo not shown) [Example 59]
PEI (penile erection index) (rats): 150.0 ± 57.7
genital grooming (number of genital groomings) (rats): 1.5 ± 0.6

SMILES: CCOc1ccc(S(=O)(=O)NCC2CCN(CC)C2)cc1-c1nc2c(CC(C)C)nn(C)c2c(=O)[nH]1 (stereo not shown) [Example 66, 5-[2-ethoxy-5-(1-ethyl-3-pyrrolidinylmethylamidosulfonyl)phenyl]-1-methyl-3-isobutyl-1,6-dihydro-7H-pyrazolo(4,3-d)pyrimidin-7-one]
PEI (penile erection index) (rats): 175.0 ± 95.7
genital grooming (number of genital groomings) (rats): 2.8 ± 0.5
IC50 [1]: 35.8 nM
IC50 [2]: 90400 nM
LD50 [3]: > 1000 mg/kg

SMILES: CCCc1nn(C)c2c(=O)[nH]c(-c3cc(S(=O)(=O)Nc4ccncc4)ccc3OCC)nc12 [Example 34, 5-[2-ethoxy-5-(4-pyridylamidosulfonyl)phenyl]-1-methyl-3-propyl-1,6-dihydro-7H-pyrazolo(4,3-d)pyrimidin-7-one]
PEI (penile erection index) (rats): 166.7 ± 57.7
genital grooming (number of genital groomings) (rats): 1.3 ± 0.6
IC50 [1]: 3.44 nM
IC50 [2]: 184000 nM
LD50 [3]: > 1000 mg/kg

IC50 [1]: 98.2 nM
IC50 [2]: 52300 nM
SMILES: CCCc1nn(C)c2c(=O)[nH]c(-c3cc(S(=O)(=O)NCC4CCN(CC)C4)ccc3OCC)nc12 (stereo not shown) [Example 63]
PEI (penile erection index) (rats): 12.5 ± 25.0
genital grooming (number of genital groomings) (rats): 1.5 ± 0.6

IC50 [1]: 33.3 nM
IC50 [2]: 47700 nM
SMILES: CCCc1nn(CC)c2c(=O)[nH]c(-c3cc(S(=O)(=O)NCC4CCCN4C)ccc3OCC)nc12 (stereo not shown) [Example 57]
PEI (penile erection index) (rats): 131.3 ± 128.1
genital grooming (number of genital groomings) (rats): 1.8 ± 1.3

SMILES: CCCOc1ccc(S(=O)(=O)NCc2ccccn2)cc1-c1nc2c(CCC)nn(C)c2c(=O)[nH]1 [Example 52, 5-[2-propyloxy-5-(2-pyridylmethylamidosulfonyl)phenyl]-1-methyl-3-propyl-1,6-dihydro-7H-pyrazolo(4,3-d)pyrimidin-7-one]
PEI (penile erection index) (rats): 233.3 ± 57.7
genital grooming (number of genital groomings) (rats): 3.0 ± 1.0
IC50 [1]: 9.89 nM
IC50 [2]: > 201000 nM
LD50 [3]: > 1000 mg/kg

SMILES: CCCc1nn(C)c2c(=O)[nH]c(-c3cc(S(=O)(=O)Nc4cccnc4)ccc3OCC)nc12 [Example 38, 5-[2-ethoxy-5-(3-pyridylamidosulfonyl)phenyl]-1-methyl-3-propyl-1,6-dihydro-7H-pyrazolo(4,3-d)pyrimidin-7-one]
PEI (penile erection index) (rats): 233.3 ± 230.9
genital grooming (number of genital groomings) (rats): 2.7 ± 2.9
IC50 [1]: 8.07 nM
IC50 [2]: 208000 nM
LD50 [3]: > 1000 mg/kg

SMILES: CCOc1ccc(S(=O)(=O)Nc2cccnc2)cc1-c1nc2c(CC(C)C)nn(C)c2c(=O)[nH]1 [Example 41, 5-[2-ethoxy-5-(3-pyridylamidosulfonyl)phenyl]-1-methyl-3-isobutyl-1,6-dihydro-7H-pyrazolo(4,3-d)pyrimidin-7-one]
PEI (penile erection index) (rats): 177.8 ± 203.7
genital grooming (number of genital groomings) (rats): 1.7 ± 1.5
IC50 [1]: 2.28 nM
IC50 [2]: 9930 nM
LD50 [3]: > 1000 mg/kg

IC50 [1]: 74.5 nM
IC50 [2]: 32100 nM
SMILES: CCCc1nn(CC)c2c(=O)[nH]c(-c3cc(S(=O)(=O)NCC4CCN(CC)C4)ccc3OCC)nc12 (stereo not shown) [Example 65]
PEI (penile erection index) (rats): 93.8 ± 94.4
genital grooming (number of genital groomings) (rats): 1.8 ± 1.0
